The values that follow come from patent US7696161B2, “Exendin agonist compounds” (Amylin Pharmaceuticals, Inc., priority 1997, dated 2010).

One may read the EC50 as the concentration needed to bring the measured effect to its halfway point. Read a high EC50 as a less potent agent.

Assay [1] has as its target cyclase (RINm5f membranes). The assay can be described thus: Cyclase activation study (cAMP by SPA immunoassay, membranes). The assay is classed as biochemical. As to conditions: cAMP in membranes, 20 minutes incubation at 37° C. The method, then:
GLP-1(7-36) [NH2] was purchased from Bachem (Torrance, Calif.). All other peptides were prepared using synthesis methods such as those described therein. All chemicals were of the highest commercial grade. The cAMP SPA immunoassay was purchased from Amersham. The radioligands were purchased from New England Nuclear (Boston, Mass.). […] Cells were grown to confluence then harvested and homogenized using on a Polytron homogenizer. Cell homogenates were stored frozen at −70° C. until used. […] Membranes and peptides were combined in […] of assay buffer in 96 well filter-bottom plates (Millipore Corp., Bedford, Mass.). […] Supernatant cAMP contents were quantitated by SPA immunoassay. […] The biological activity of a particular sample was expressed as an EC50 value, calculated as described above.

Assay [2] concerns C57BLKS/J-m-db mice. Nature of the assay: Determination of blood glucose levels in db/db mice. The assay is classed as in vivo. As to conditions: 1 μg subcutaneous, plasma glucose one hour after injection vs baseline.

In the case of `CC[C@H](C)[C@H](NC(=O)[C@H](Cc1ccccc1)NC(=O)[C@H](CC(C)C)NC(=O)[C@H](CCCNC(=N)N)NC(=O)[C@@H](NC(=O)[C@H](C)NC(=O)[C@H](CCC(=O)O)NC(=O)[C@H](CCC(=O)O)NC(=O)[C@H](CCC(=O)O)NC(=O)[C@H](CC(C)C)NC(=O)[C@H](CCC(N)=O)NC(=O)[C@H](CCCCN)NC(=O)[C@H](CO)NC(=O)[C@H](CC(C)C)NC(=O)[C@H](CC(=O)O)NC(=O)[C@H](CO)NC(=O)[C@@H](NC(=O)[C@H](Cc1ccccc1)NC(=O)[C@@H](NC(=O)CNC(=O)[C@H](CCC(=O)O)NC(=O)[C@H](C)NC(=O)[C@@H](N)Cc1c[nH]cn1)[C@@H](C)O)[C@@H](C)O)C(C)C)C(=O)N[C@@H](CCC(=O)O)C(=O)N[C@@H](Cc1ccccc1)C(=O)N[C@@H](CC(C)C)C(=O)N[C@@H](CCCCN)C(=O)N[C@@H](CC(N)=O)C(N)=O` [Compound 4], the half-maximal effective concentration (EC50) in assay [1] was found to be 0.22 nM. Further, in assay [2], the “% drop in glucose” value came to 27%.
For `CC[C@H](C)[C@H](NC(=O)[C@H](Cc1ccccc1)NC(=O)[C@H](CC(C)C)NC(=O)[C@H](CCCNC(=N)N)NC(=O)[C@@H](NC(=O)[C@H](C)NC(=O)[C@H](CCC(=O)O)NC(=O)[C@H](CCC(=O)O)NC(=O)[C@H](CCC(=O)O)NC(=O)[C@H](CC(C)C)NC(=O)[C@H](CCC(N)=O)NC(=O)[C@H](CCCCN)NC(=O)[C@H](CO)NC(=O)[C@H](CC(C)C)NC(=O)[C@H](CC(=O)O)NC(=O)[C@H](CO)NC(=O)[C@@H](NC(=O)[C@H](Cc1ccccc1)NC(=O)[C@H](C)NC(=O)CNC(=O)[C@H](CCC(=O)O)NC(=O)CNC(=O)[C@@H](N)Cc1c[nH]cn1)[C@@H](C)O)C(C)C)C(=O)N[C@@H](CCC(=O)O)C(=O)N[C@@H](Cc1ccccc1)C(=O)N[C@@H](CC(C)C)C(=O)N[C@@H](CCCCN)C(=O)N[C@@H](CC(N)=O)C(N)=O` [Compound 5] the same measures were 9.85 nM and 47%.
For `CC[C@H](C)[C@H](NC(=O)[C@H](Cc1ccccc1)NC(=O)[C@H](CC(C)C)NC(=O)[C@H](CCCNC(=N)N)NC(=O)[C@@H](NC(=O)[C@H](C)NC(=O)[C@H](CCC(=O)O)NC(=O)[C@H](CCC(=O)O)NC(=O)[C@H](CCC(=O)O)NC(=O)[C@H](CC(C)C)NC(=O)[C@H](CCC(N)=O)NC(=O)[C@H](CCCCN)NC(=O)[C@H](CO)NC(=O)[C@H](CC(C)C)NC(=O)[C@H](CC(=O)O)NC(=O)[C@H](CO)NC(=O)[C@@H](NC(=O)[C@H](C)NC(=O)[C@@H](NC(=O)CNC(=O)[C@H](CCC(=O)O)NC(=O)CNC(=O)[C@@H](N)Cc1c[nH]cn1)[C@@H](C)O)[C@@H](C)O)C(C)C)C(=O)N[C@@H](CCC(=O)O)C(=O)N[C@@H](Cc1ccccc1)C(=O)N[C@@H](CC(C)C)C(=O)N[C@@H](CCCCN)C(=O)N[C@@H](CC(N)=O)C(N)=O` [Compound 6] the same measures were 79.4 nM and 40%.
For the compound `CC[C@H](C)[C@H](NC(=O)[C@H](Cc1ccccc1)NC(=O)[C@H](CC(C)C)NC(=O)[C@H](CCCNC(=N)N)NC(=O)[C@@H](NC(=O)[C@H](C)NC(=O)[C@H](CCC(=O)O)NC(=O)[C@H](CCC(=O)O)NC(=O)[C@H](CCC(=O)O)NC(=O)[C@H](CC(C)C)NC(=O)[C@H](CCC(N)=O)NC(=O)[C@H](CCCCN)NC(=O)[C@H](CO)NC(=O)[C@H](CC(C)C)NC(=O)[C@H](CC(=O)O)NC(=O)[C@H](C)NC(=O)[C@@H](NC(=O)[C@H](Cc1ccccc1)NC(=O)[C@@H](NC(=O)CNC(=O)[C@H](CCC(=O)O)NC(=O)CNC(=O)[C@@H](N)Cc1c[nH]cn1)[C@@H](C)O)[C@@H](C)O)C(C)C)C(=O)N[C@@H](CCC(=O)O)C(=O)N[C@@H](Cc1ccccc1)C(=O)N[C@@H](CC(C)C)C(=O)N[C@@H](CCCCN)C(=O)N[C@@H](CC(N)=O)C(N)=O` [Compound 7], in assay [1], the 50% effective concentration (EC50) is 63.6 nM. Also, the “% drop in glucose” value in assay [2] is 31%.
For `CC[C@H](C)[C@H](NC(=O)[C@H](Cc1ccccc1)NC(=O)[C@H](CC(C)C)NC(=O)[C@H](CCCNC(=N)N)NC(=O)[C@@H](NC(=O)[C@H](C)NC(=O)[C@H](CCC(=O)O)NC(=O)[C@H](CCC(=O)O)NC(=O)[C@H](CCC(=O)O)NC(=O)[C@H](CC(C)C)NC(=O)[C@H](CCC(N)=O)NC(=O)[C@H](CCCCN)NC(=O)[C@H](CO)NC(=O)[C@H](C)NC(=O)[C@H](CC(=O)O)NC(=O)[C@H](CO)NC(=O)[C@@H](NC(=O)[C@H](Cc1ccccc1)NC(=O)[C@@H](NC(=O)CNC(=O)[C@H](CCC(=O)O)NC(=O)CNC(=O)[C@@H](N)Cc1c[nH]cn1)[C@@H](C)O)[C@@H](C)O)C(C)C)C(=O)N[C@@H](CCC(=O)O)C(=O)N[C@@H](Cc1ccccc1)C(=O)N[C@@H](CC(C)C)C(=O)N[C@@H](CCCCN)C(=O)N[C@@H](CC(N)=O)C(N)=O` [Compound 8] the same measures were 6.8 nM and 44%.
`CC[C@H](C)[C@H](NC(=O)[C@H](Cc1ccccc1)NC(=O)[C@H](CC(C)C)NC(=O)[C@H](CCCNC(=N)N)NC(=O)[C@@H](NC(=O)[C@H](C)NC(=O)[C@H](CCC(=O)O)NC(=O)[C@H](CCC(=O)O)NC(=O)[C@H](CCC(=O)O)NC(=O)[C@H](CC(C)C)NC(=O)[C@H](CCC(N)=O)NC(=O)[C@H](CCCCN)NC(=O)[C@H](C)NC(=O)[C@H](CC(C)C)NC(=O)[C@H](CC(=O)O)NC(=O)[C@H](CO)NC(=O)[C@@H](NC(=O)[C@H](Cc1ccccc1)NC(=O)[C@@H](NC(=O)CNC(=O)[C@H](CCC(=O)O)NC(=O)CNC(=O)[C@@H](N)Cc1c[nH]cn1)[C@@H](C)O)[C@@H](C)O)C(C)C)C(=O)N[C@@H](CCC(=O)O)C(=O)N[C@@H](Cc1ccccc1)C(=O)N[C@@H](CC(C)C)C(=O)N[C@@H](CCCCN)C(=O)N[C@@H](CC(N)=O)C(N)=O` [Compound 9]: a half-maximal effect in assay [1] (EC50) was put at 1.68 nM. Besides, the “% drop in glucose” value in assay [2] was determined as 41%.
Regarding `CC[C@H](C)[C@H](NC(=O)[C@H](Cc1ccccc1)NC(=O)[C@H](CC(C)C)NC(=O)[C@H](CCCNC(=N)N)NC(=O)[C@@H](NC(=O)[C@H](C)NC(=O)[C@H](CCC(=O)O)NC(=O)[C@H](CCC(=O)O)NC(=O)[C@H](CCC(=O)O)NC(=O)[C@H](CC(C)C)NC(=O)[C@H](C)NC(=O)[C@H](CCCCN)NC(=O)[C@H](CO)NC(=O)[C@H](CC(C)C)NC(=O)[C@H](CC(=O)O)NC(=O)[C@H](CO)NC(=O)[C@@H](NC(=O)[C@H](Cc1ccccc1)NC(=O)[C@@H](NC(=O)CNC(=O)[C@H](CCC(=O)O)NC(=O)CNC(=O)[C@@H](N)Cc1c[nH]cn1)[C@@H](C)O)[C@@H](C)O)C(C)C)C(=O)N[C@@H](CCC(=O)O)C(=O)N[C@@H](Cc1ccccc1)C(=O)N[C@@H](CC(C)C)C(=O)N[C@@H](CCCCN)C(=O)N[C@@H](CC(N)=O)C(N)=O` [Compound 11], the concentration for a half-maximal effect (EC50) in assay [1] came to 0.48 nM. Also, the “% drop in glucose” value in assay [2] stood at 40%.
Compound `CC[C@H](C)[C@H](NC(=O)[C@H](Cc1ccccc1)NC(=O)[C@H](CC(C)C)NC(=O)[C@H](CCCNC(=N)N)NC(=O)[C@@H](NC(=O)[C@H](C)NC(=O)[C@H](CCC(=O)O)NC(=O)[C@H](CCC(=O)O)NC(=O)[C@H](CCC(=O)O)NC(=O)[C@H](C)NC(=O)[C@H](CCC(N)=O)NC(=O)[C@H](CCCCN)NC(=O)[C@H](CO)NC(=O)[C@H](CC(C)C)NC(=O)[C@H](CC(=O)O)NC(=O)[C@H](CO)NC(=O)[C@@H](NC(=O)[C@H](Cc1ccccc1)NC(=O)[C@@H](NC(=O)CNC(=O)[C@H](CCC(=O)O)NC(=O)CNC(=O)[C@@H](N)Cc1c[nH]cn1)[C@@H](C)O)[C@@H](C)O)C(C)C)C(=O)N[C@@H](CCC(=O)O)C(=O)N[C@@H](Cc1ccccc1)C(=O)N[C@@H](CC(C)C)C(=O)N[C@@H](CCCCN)C(=O)N[C@@H](CC(N)=O)C(N)=O` [Compound 12] gave an EC50 in assay [1] of 15.6 nM. Further, the “% drop in glucose” value in assay [2] amounted to 53%.
For the compound `CC[C@H](C)[C@H](NC(=O)[C@H](Cc1ccccc1)NC(=O)[C@H](CC(C)C)NC(=O)[C@H](CCCNC(=N)N)NC(=O)[C@@H](NC(=O)[C@H](C)NC(=O)[C@H](CCC(=O)O)NC(=O)[C@H](C)NC(=O)[C@H](CCC(=O)O)NC(=O)[C@H](CC(C)C)NC(=O)[C@H](CCC(N)=O)NC(=O)[C@H](CCCCN)NC(=O)[C@H](CO)NC(=O)[C@H](CC(C)C)NC(=O)[C@H](CC(=O)O)NC(=O)[C@H](CO)NC(=O)[C@@H](NC(=O)[C@H](Cc1ccccc1)NC(=O)[C@@H](NC(=O)CNC(=O)[C@H](CCC(=O)O)NC(=O)CNC(=O)[C@@H](N)Cc1c[nH]cn1)[C@@H](C)O)[C@@H](C)O)C(C)C)C(=O)N[C@@H](CCC(=O)O)C(=O)N[C@@H](Cc1ccccc1)C(=O)N[C@@H](CC(C)C)C(=O)N[C@@H](CCCCN)C(=O)N[C@@H](CC(N)=O)C(N)=O` [Compound 14], it took 1.11 nM to reach a half-maximal effect in assay [1] (EC50). Besides, the “% drop in glucose” value in assay [2] is reported as 54%.
The compound `CC[C@H](C)[C@H](NC(=O)[C@H](Cc1ccccc1)NC(=O)[C@H](CC(C)C)NC(=O)[C@H](CCCNC(=N)N)NC(=O)[C@@H](NC(=O)[C@H](C)NC(=O)[C@H](C)NC(=O)[C@H](CCC(=O)O)NC(=O)[C@H](CCC(=O)O)NC(=O)[C@H](CC(C)C)NC(=O)[C@H](CCC(N)=O)NC(=O)[C@H](CCCCN)NC(=O)[C@H](CO)NC(=O)[C@H](CC(C)C)NC(=O)[C@H](CC(=O)O)NC(=O)[C@H](CO)NC(=O)[C@@H](NC(=O)[C@H](Cc1ccccc1)NC(=O)[C@@H](NC(=O)CNC(=O)[C@H](CCC(=O)O)NC(=O)CNC(=O)[C@@H](N)Cc1c[nH]cn1)[C@@H](C)O)[C@@H](C)O)C(C)C)C(=O)N[C@@H](CCC(=O)O)C(=O)N[C@@H](Cc1ccccc1)C(=O)N[C@@H](CC(C)C)C(=O)N[C@@H](CCCCN)C(=O)N[C@@H](CC(N)=O)C(N)=O` [Compound 15] yielded an EC50 in assay [1] of 1.05 nM. Also, in assay [2], the “% drop in glucose” value amounted to 45%.
